The structures appear in SMILES notation. Read-outs that look alike come from different tables or passages of the source.

Assay [1] deals with phosphorylated 4E-BP1 Thr37/46 (p4E-BP1 Thr37/46), mTORC1 activity, PC3 cells. In words: mTOR target engagement assay, immunofluorescent cell-based, p4E-BP1 Thr37/46 readout (mTORC1 activity). Particulars: Homo sapiens. An outline of the steps: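 PTEN-mutant PC3 prostate cells were treated with serially diluted compound in 5% FBS F12 medium (0.25% DMSO) for ninety minutes at 37° C, glyoxal-fixed, then immunostained overnight at 4° C for p4E-BP1 Thr37/46 with an Alexa Fluor 488 secondary. IC50 came from four-parameter fits of fluorescence, DMSO-only wells defining 100%.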

Assay [2] has as its system phosphorylated AKT Ser473 (pAKT S473), mTORC2 activity, PC3 cells. In words: mTOR target engagement assay, immunofluorescent cell-based, pAKT S473 readout (mTORC2 activity). Particulars: Homo sapiens. An outline of the steps: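 After blocking, cells were stained overnight at 4 °C with anti-pAKT S473 antibody, then a fluorescent secondary; inhibition was read as reduced fluorescence intensity.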

[3] abbreviates: PC-3, PC3 cells, compound treatment ninety minutes at 37° C., read-out: p4E-BP1 Thr37/46 IC50.
[4] abbreviates: PC-3, PC3 cells, compound treatment ninety minutes at 37° C.
The mark [5] stands for this setting: PC-3, Table 3-1, PC3 cells, read-out: p4E-BP1 Thr37/46 IC50.
Setting [6] is: PC-3, PC3 cells, read-out: p4E-BP1 Thr37/46 IC50.

As to `CC(=O)c1c([C@@H]2C[C@H]3CC[C@@H](C2)N3C(N)=O)nc2c(-c3ccc(-c4ccc(F)cc4F)nc3)cnn2c1N` [Compound 1.1.169, (1R,3s,5S)-3-(6-acetyl-7-amino-3-(6-(2,4-difluorophenyl)pyridin-3-yl)pyrazolo[1,5-a]pyrimidin-5-yl)-8-azabicyclo[3.2.1]octane-8-carboxamide], the IC50 in assay [1] (setting [3]) and in assay [2] (setting [4]) was 1 to 100 nM in each case.
Take `CC(=O)c1c([C@@H]2C[C@H]3CC[C@@H](C2)N3C(=O)CF)nc2c(-c3ccc(-c4ncc[nH]4)nc3)cnn2c1N` [Compound 6.22, 1-((1R,3s,5S)-3-(3-(6-(1H-imidazol-2-yl)pyridin-3-yl)-6-acetyl-7-aminopyrazolo[1,5-a]pyrimidin-5-yl)-8-azabicyclo[3.2.1]octan-8-yl)-2-fluoroethanone]: the IC50 was 1 to 100 nM in assay [1] (PC-3, read-out: p4E-BP1 Thr37/46 IC50) and 1 to 100 nM in assay [2] (PC-3, Table 6-1, PC3 cells).
With `CC(=O)c1c([C@@H]2C[C@H]3CC[C@@H](C2)N3C(=O)C(C)F)nc2c(-c3ccc(-c4ncc[nH]4)nc3)cnn2c1N` (stereo partly drawn) [Compound 6.23, 1-((1R,3s,5S)-3-(3-(6-(1H-imidazol-2-yl)pyridin-3-yl)-6-acetyl-7-aminopyrazolo[1,5-a]pyrimidin-5-yl)-8-azabicyclo[3.2.1]octan-8-yl)-2-fluoropropan-1-one], the IC50 in assay [1] (PC-3, Table 6-1, PC3 cells, read-out: p4E-BP1 Thr37/46 IC50) was in the range of 100 to 1000 nM; in assay [2] (PC-3, Table 6-1, PC3 cells), 1 to 100 nM.
As for `COc1ccc(-c2ccc(-c3cnn4c(N)cc([C@@H]5C[C@H]6CC[C@@H](C5)N6C(=O)CO)nc34)cn2)cc1CO` [Compound 2.7, 1-((1R,3s,5S)-3-(7-amino-3-(6-(3-(hydroxymethyl)-4-methoxyphenyl)pyridin-3-yl)pyrazolo[1,5-a]pyrimidin-5-yl)-8-azabicyclo[3.2.1]octan-8-yl)-2-hydroxyethanone], the IC50 in assay [1] (setting [3]) and in assay [2] (setting [4]) was 100 to 1000 nM throughout.
Turning to `CC(=O)c1c([C@@H]2C[C@H]3CC[C@@H](C2)N3C(N)=O)nc2c(-c3ccc(-c4ccccc4F)nc3)cnn2c1N` [Compound 1.1.174, (1R,3s,5S)-3-(6-acetyl-7-amino-3-(6-(2-fluorophenyl)pyridin-3-yl)pyrazolo[1,5-a]pyrimidin-5-yl)-8-azabicyclo[3.2.1]octane-8-carboxamide], the IC50 in assay [1] (setting [3]) and in assay [2] (setting [4]) was 1 to 100 nM each time.
Turning to `Nc1cc([C@@H]2C[C@H]3CC[C@@H](C2)N3C(=O)c2nnc[nH]2)nc2c(-c3ccc(-c4ccccc4F)nc3)cnn12` [Compound 2.16, ((1R,3s,5S)-3-(7-amino-3-(6-(2-fluorophenyl)pyridin-3-yl)pyrazolo[1,5-a]pyrimidin-5-yl)-8-azabicyclo[3.2.1]octan-8-yl)(4H-1,2,4-triazol-3-yl)methanone], the IC50 in assay [1] (setting [3]) and in assay [2] (setting [4]) was 100 to 1000 nM in each case.
Regarding `Cn1cc(-c2cnn3c(N)c(S(C)(=O)=O)c([C@@H]4C[C@H]5CC[C@@H](C4)N5C(=O)CO)nc23)cn1` [Compound 3.112, 1-((1R,3s,5S)-3-(7-amino-3-(1-methyl-1H-pyrazol-4-yl)-6-(methylsulfonyl)pyrazolo[1,5-a]pyrimidin-5-yl)-8-azabicyclo[3.2.1]octan-8-yl)-2-hydroxyethanone], the IC50 in assay [1] (setting [5]) is 1000 to 10000 nM; in assay [2] (PC-3, Table 3-1, PC3 cells) it was more than 10000 nM.
As for `CC(=O)c1c([C@@H]2C[C@H]3CC[C@@H](C2)N3C(=O)c2nnc[nH]2)nc2c(-c3ccc(-c4cc(C)[nH]n4)nc3)cnn2c1N` [Compound 1.1.95, 1-(5-((1R,3s,5S)-8-(4H-1,2,4-triazole-3-carbonyl)-8-azabicyclo[3.2.1]octan-3-yl)-7-amino-3-(6-(5-methyl-1H-pyrazol-3-yl)pyridin-3-yl)pyrazolo[1,5-a]pyrimidin-6-yl)ethanone], the IC50 in assay [1] (setting [3]) and in assay [2] (setting [4]) was 1000 to 10000 nM each time.
In the case of `Cn1nnc(-c2ccc(-c3cnn4c(N)c(S(C)(=O)=O)c([C@@H]5C[C@H]6CC[C@@H](C5)N6C(=O)c5nnc[nH]5)nc34)cn2)n1` [Compound 3.42, ((1R,3a,5S)-3-(7-amino-3-(6-(2-methyl-2H-tetrazol-5-yl)pyridin-3-yl)-6-(methylsulfonyl)pyrazolo[1,5-a]pyrimidin-5-yl)-8-azabicyclo[3.2.1]octan-8-yl)(4H-1,2,4-triazol-3-yl)methanone], the IC50 in assay [1] (setting [5]) was in the range of 1000 to 10000 nM; in assay [2] (PC-3, Table 3-1, PC3 cells), 100 to 1000 nM.
Regarding `CC(=O)c1c([C@@H]2C[C@H]3CC[C@@H](C2)N3C(=O)c2cc[nH]n2)nc2c(-c3ccc(C(C)(C)O)nc3)cnn2c1N` [Compound 7.11, 1-(5-((1R,3s,5S)-8-(1H-pyrazole-3-carbonyl)-8-azabicyclo[3.2.1]octan-3-yl)-7-amino-3-(6-(2-hydroxypropan-2-yl)pyridin-3-yl)pyrazolo[1,5-a]pyrimidin-6-yl)ethanone], the IC50 is 100 to 1000 nM in assay [1] (setting [3]) and 1 to 100 nM in assay [2] (setting [4]).
Turning to `Cc1cc(-c2cnn3c(N)c(S(C)(=O)=O)c([C@@H]4C[C@H]5CC[C@@H](C4)N5C(=O)c4nnc[nH]4)nc23)cnc1C(C)(C)O` [Compound 3.157, ((1R,3s,5S)-3-(7-amino-3-(6-(2-hydroxypropan-2-yl)-5-methylpyridin-3-yl)-6-(methylsulfonyl)pyrazolo[1,5-a]pyrimidin-5-yl)-8-azabicyclo[3.2.1]octan-8-yl)(4H-1,2,4-triazol-3-yl)methanone], the IC50 was 1 to 100 nM in assay [1] (setting [5]) and 1 to 100 nM in assay [2] (PC-3, Table 3-1, PC3 cells).
`CC(=O)c1c([C@@H]2C[C@H]3CC[C@@H](C2)N3C(=O)CO)nc2c(-c3ccc(-c4ccccc4F)nc3)cnn2c1N` [Compound 1.1.172, 1-((1R,3s,5S)-3-(6-acetyl-7-amino-3-(6-(2-fluorophenyl)pyridin-3-yl)pyrazolo[1,5-a]pyrimidin-5-yl)-8-azabicyclo[3.2.1]octan-8-yl)-2-hydroxyethanone]: the IC50 in assay [1] (setting [3]) and in assay [2] (setting [4]) was 1 to 100 nM in each case.
For `CC(=O)c1c([C@@H]2C[C@H]3CC[C@@H](C2)N3C(=O)c2n[nH]c(N(C)C)n2)nc2c(-c3ccc(-c4ccccc4)nc3)cnn2c1N` [Compound 1.1.139, 1-(7-amino-5-((1R,3s,5S)-8-(5-(dimethylamino)-1H-1,2,4-triazole-3-carbonyl)-8-azabicyclo[3.2.1]octan-3-yl)-3-(6-phenylpyridin-3-yl)pyrazolo[1,5-a]pyrimidin-6-yl)ethanone], the IC50 in assay [1] (setting [3]) and in assay [2] (setting [4]) was 1000 to 10000 nM throughout.
Turning to `CS(=O)(=O)c1c([C@@H]2C[C@H]3CC[C@@H](C2)N3C(=O)[C@@H]2CCCN2)nc2c(-c3ccc(-c4ccccc4)nc3)cnn2c1N` [Compound 3.206, ((1R,3R,5S)-3-(7-amino-6-(methylsulfonyl)-3-(6-phenylpyridin-3-yl)pyrazolo[1,5-a]pyrimidin-5-yl)-8-azabicyclo[3.2.1]octan-8-yl)((S)-pyrrolidin-2-yl)methanone], the IC50 in assay [1] (setting [5]) fell in the range of 1000 to 10000 nM; in assay [2] (PC-3, Table 3-1, PC3 cells) it was 1000 to 10000 nM.
Take `CS(=O)(=O)c1c([C@@H]2C[C@H]3CC[C@@H](C2)N3C(=O)c2nnc[nH]2)nc2c(-c3ccc(-c4ccccc4F)nc3)cnn2c1N` [Compound 3.104, ((1R,3s,5S)-3-(7-amino-3-(6-(2-fluorophenyl)pyridin-3-yl)-6-(methylsulfonyl)pyrazolo[1,5-a]pyrimidin-5-yl)-8-azabicyclo[3.2.1]octan-8-yl)(4H-1,2,4-triazol-3-yl)methanone]: the IC50 lay in the range of 1 to 100 nM in assay [1] (setting [5]) and 1 to 100 nM in assay [2] (PC-3, Table 3-1, PC3 cells).
`CS(=O)(=O)c1c([C@@H]2C[C@H]3CC[C@@H](C2)N3C(=O)c2coc(=O)[nH]2)nc2c(-c3ccc(-c4ccccc4)nc3)cnn2c1N` [Compound 3.138, 4-((1R,3s,5S)-3-(7-amino-6-(methylsulfonyl)-3-(6-phenylpyridin-3-yl)pyrazolo[1,5-a]pyrimidin-5-yl)-8-azabicyclo[3.2.1]octane-8-carbonyl)oxazol-2(3H)-one]: the IC50 in assay [1] (setting [5]) was in the range of 100 to 1000 nM; in assay [2] (PC-3, Table 3-1, PC3 cells), 100 to 1000 nM.
Turning to `CC(=O)c1c([C@@H]2C[C@H]3CC[C@@H](C2)N3C(=O)c2nnc[nH]2)nc2c(-c3ccc(N)nc3)cnn2c1N` [Compound 8.48, 1-(5-((1R,3s,5S)-8-(4H-1,2,4-triazole-3-carbonyl)-8-azabicyclo[3.2.1]octan-3-yl)-7-amino-3-(6-aminopyridin-3-yl)pyrazolo[1,5-a]pyrimidin-6-yl)ethanone], the IC50 is 1 to 100 nM in assay [1] (setting [6]) and 1 to 100 nM in assay [2] (PC-3, PC3 cells).
As to `COc1cc(F)cc2cc(-c3cnn4c(N)c(C(C)=O)c([C@@H]5C[C@H]6CC[C@@H](C5)N6C(=O)CO)nc34)cnc12` [Compound 1.1.183, 1-((1R,3r,5S)-3-(6-acetyl-7-amino-3-(6-fluoro-8-methoxyquinolin-3-yl)pyrazolo[1,5-a]pyrimidin-5-yl)-8-azabicyclo[3.2.1]octan-8-yl)-2-hydroxyethanone], the IC50 was in the range of 100 to 1000 nM in assay [1] (setting [3]) and 1 to 100 nM in assay [2] (setting [4]).
In the case of `CNC(=O)Nc1ccc(-c2cnn3c(N)c(C(C)=O)c([C@@H]4C[C@H]5CC[C@@H](C4)N5C(=O)c4ncn[nH]4)nc23)cn1` [Compound 8.75, 1-(5-(5-((1R,3s,5S)-8-(1H-1,2,4-triazole-5-carbonyl)-8-azabicyclo[3.2.1]octan-3-yl)-6-acetyl-7-aminopyrazolo[1,5-a]pyrimidin-3-yl)pyridin-2-yl)-3-methylurea], the IC50 fell in the range of 100 to 1000 nM in assay [1] (setting [6]) and 1 to 100 nM in assay [2] (PC-3, PC3 cells).

Source of the values: patent publication US9227971B2, “Pyrazolo[1,5-a]pyrimidine compounds as mTOR inhibitors” (Merck Sharp & Dohme Corp., priority 2010, dated 2016).
